Experimental data as given in ChEMBL document CHEMBL4765305, “Elephantopinolide A-P, germacrane-type sesquiterpene lactones from Elephantopus scaber induce apoptosis, autophagy and G2/M phase arrest in hepatocellular carcinoma cells” (Eur J Med Chem, 2020).

Assays:
[1] = tested on: HepG2; test: Anti-hepatoma activity against human HepG2 cells assessed as cell growth inhibition by MTT assay; format: functional, cell-based
[2] = tested on: Hep 3B2; test: Anti-hepatoma activity against human Hep3B cells assessed as cell growth inhibition by MTT assay; format: functional, cell-based

SMILES: C=C(C)C(=O)O[C@H]1CC2=C[C@H](C/C(C)=C/[C@H]3OC(=O)[C@@H](C)C13)OC2=O (stereo not given in full)
- IC50 [1]: > 20 µM
- IC50 [2]: > 20 µM

SMILES: C=C1C(=O)O[C@@H]2/C=C(\C)C[C@H]3C=C(C[C@H](OC(=O)C(C)C)[C@@H]12)C(=O)O3
- IC50 [1]: 10.6 µM
- IC50 [2]: 8.63 µM

SMILES: C/C=C(/C)C(=O)O[C@H]1CC2=C[C@@H](C/C(C)=C/[C@H]3OC(=O)C(CO)=C13)OC2=O
- IC50 [1]: > 20 µM
- IC50 [2]: > 20 µM

SMILES: C=C1C(=O)O[C@H]2[C@H]1[C@@H](OC(=O)/C(C)=C\C)CC1=C[C@@H](C[C@@]3(C)O[C@@H]23)OC1=O
- IC50 [1]: 5.99 µM
- IC50 [2]: 3.74 µM

SMILES: C=C(C)C(=O)O[C@H]1CC2=C[C@@H](C[C@@](C)(O)/C=C/[C@@H]1C(=C)C(=O)OC)OC2=O
- IC50 [1]: > 20 µM
- IC50 [2]: > 20 µM
